Results published in patent US20230295200A1 (REGENTS OF THE UNIVERSITY OF MICHIGAN, priority 2022, published 2023).

Legend:
STAT5A = biological target: T1, STAT5A (Homo sapiens, UniProt P42229); test: Fluorescence polarization (FP) binding assay, STAT5A; conditions: FP competition, 5 nM fluorescein-labeled tracer, 200 nM protein, PBS pH7.4
T1 sequence (P42229 1-794): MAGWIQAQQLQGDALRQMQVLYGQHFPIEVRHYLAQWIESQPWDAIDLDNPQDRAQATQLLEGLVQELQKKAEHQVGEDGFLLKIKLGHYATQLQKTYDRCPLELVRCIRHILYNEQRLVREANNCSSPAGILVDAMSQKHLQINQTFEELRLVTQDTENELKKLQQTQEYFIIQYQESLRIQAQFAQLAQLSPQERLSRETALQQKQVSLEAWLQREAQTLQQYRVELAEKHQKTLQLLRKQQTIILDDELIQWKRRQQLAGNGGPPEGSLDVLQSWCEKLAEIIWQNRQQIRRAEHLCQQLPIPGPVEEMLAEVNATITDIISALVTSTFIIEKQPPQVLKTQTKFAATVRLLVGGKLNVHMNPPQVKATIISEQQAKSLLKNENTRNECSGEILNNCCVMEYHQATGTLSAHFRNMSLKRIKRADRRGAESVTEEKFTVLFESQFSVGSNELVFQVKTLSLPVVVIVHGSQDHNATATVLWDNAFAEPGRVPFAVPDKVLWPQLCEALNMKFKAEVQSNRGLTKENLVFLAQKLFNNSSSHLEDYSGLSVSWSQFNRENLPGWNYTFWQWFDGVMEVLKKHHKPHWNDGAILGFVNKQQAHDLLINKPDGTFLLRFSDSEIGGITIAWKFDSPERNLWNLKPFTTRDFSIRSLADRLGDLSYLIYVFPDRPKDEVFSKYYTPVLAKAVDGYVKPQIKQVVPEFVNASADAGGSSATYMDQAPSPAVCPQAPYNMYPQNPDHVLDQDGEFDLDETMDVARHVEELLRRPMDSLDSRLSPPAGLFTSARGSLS
Summary of the method: (§1)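 Fluorescence polarization is read after STAT5 or STAT6 protein (200 nM) and a fluorescein-labeled tracer (5 nM) equilibrate for 1 h at room temperature in DTT-containing PBS pH 7.4 with BGG and Tween-20. Inhibition constants are obtained by nonlinear curve fitting.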

STAT6 protein = biological target: T2, STAT6 protein (Homo sapiens, UniProt P42226); test: Fluorescence polarization (FP) binding assay, STAT6; conditions: FP competition, 5 nM fluorescein-labeled tracer, 200 nM protein, PBS pH7.4; read-out: Binding STAT6
T2 sequence (P42226 1-847): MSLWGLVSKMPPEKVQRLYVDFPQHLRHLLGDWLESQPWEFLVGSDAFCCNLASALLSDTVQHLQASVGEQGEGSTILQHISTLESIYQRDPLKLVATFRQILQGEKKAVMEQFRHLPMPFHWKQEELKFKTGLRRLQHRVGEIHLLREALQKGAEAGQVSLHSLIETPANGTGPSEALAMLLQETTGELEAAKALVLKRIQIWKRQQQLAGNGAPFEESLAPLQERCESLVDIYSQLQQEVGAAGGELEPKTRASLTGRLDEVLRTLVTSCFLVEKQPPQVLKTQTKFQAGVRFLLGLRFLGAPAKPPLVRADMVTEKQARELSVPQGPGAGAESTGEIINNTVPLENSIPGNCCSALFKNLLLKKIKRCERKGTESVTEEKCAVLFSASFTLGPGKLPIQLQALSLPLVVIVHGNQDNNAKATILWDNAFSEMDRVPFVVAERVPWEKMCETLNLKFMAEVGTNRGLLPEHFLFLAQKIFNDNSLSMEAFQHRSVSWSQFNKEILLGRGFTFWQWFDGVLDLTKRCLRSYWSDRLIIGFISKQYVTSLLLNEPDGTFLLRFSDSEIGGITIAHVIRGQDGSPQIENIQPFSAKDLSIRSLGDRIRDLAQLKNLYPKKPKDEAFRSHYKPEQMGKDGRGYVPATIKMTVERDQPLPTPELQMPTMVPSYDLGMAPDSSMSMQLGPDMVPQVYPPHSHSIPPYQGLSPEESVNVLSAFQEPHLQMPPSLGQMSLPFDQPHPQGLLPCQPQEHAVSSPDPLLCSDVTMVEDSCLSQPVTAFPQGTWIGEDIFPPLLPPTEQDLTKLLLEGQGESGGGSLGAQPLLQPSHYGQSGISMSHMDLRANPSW
Summary of the method: as §1

| Structure (SMILES) | Ki (STAT5A) [µM] | Ki (STAT6 protein) [µM] |
| --- | --- | --- |
| CC(C)(C)[C@H](NC(=O)c1cc2cc(C(F)(F)P(=O)(O)O)ccc2s1)C(=O)N1CCCCC[C@H]1C(=O)N1CC[C@H](c2ccccc2)C1 [Compound 185, ((2-(((S)-3,3-dimethyl-1-oxo-1-((S)-2-((R)-3-phenylpyrrolidine-1-carbonyl)azepan-1-yl)butan-2-yl)carbamoyl)benzo[b]thiophen-5-yl)difluoromethyl)phosphonic acid] | 1 to 10 | 1 to 10 |
| CC(C)(C)[C@H](NC(=O)c1cc2cc(C(F)(F)P(=O)(O)O)ccc2s1)C(=O)N1CCCCC[C@H]1C(=O)N1CC[C@@H](c2ccccc2)C1 [Compound 186, ((2-(((S)-3,3-dimethyl-1-oxo-1-((S)-2-((S)-3-phenylpyrrolidine-1-carbonyl)azepan-1-yl)butan-2-yl)carbamoyl)benzo[b]thiophen-5-yl)difluoromethyl)phosphonic acid] | 1 to 10 | > 10 |
| CC(C)(C)[C@H](NC(=O)c1cc2cc(C(F)(F)P(=O)(O)O)ccc2s1)C(=O)N1CCCCC[C@H]1C(=O)N1Cc2ccccc2C1 [Compound 187, (difluoro(2-(((S)-1-((S)-2-(isoindoline-2-carbonyl)azepan-1-yl)-3,3-dimethyl-1-oxobutan-2-yl)carbamoyl)benzo[b]thiophen-5-yl)methyl)phosphonic acid] | > 10 | 1 to 10 |
| CC(C)(C)[C@H](NC(=O)c1cc2cc(C(F)(F)P(=O)(O)O)ccc2s1)C(=O)N1CCCCC[C@H]1C(=O)Nc1ncc(-c2ccccc2)s1 [Compound 188, ((2-(((S)-3,3-dimethyl-1-oxo-1-((S)-2-((5-phenylthiazol-2-yl)carbamoyl)azepan-1-yl)butan-2-yl)carbamoyl)benzo[b]thiophen-5-yl)difluoromethyl)phosphonic acid] | 0.1 to 1 | 1 to 10 |
| CC(C)(C)[C@H](NC(=O)c1cc2cc(C(F)(F)P(=O)(O)O)ccc2s1)C(=O)N1Cc2ccccc2CC1C(=O)N1CCO[C@H](c2ccccc2)C1 (stereo partly drawn) [Compound 189, ((2-(((2S)-3,3-dimethyl-1-oxo-1-(3-((R)-2-phenylmorpholine-4-carbonyl)-3,4-dihydroisoquinolin-2(1H)-yl)butan-2-yl)carbamoyl)benzo[b]thiophen-5-yl)difluoromethyl)phosphonic acid] | 1 to 10 | 0.1 to 1 |
| CC(C)(C)[C@H](NC(=O)c1cc2cc(C(F)(F)P(=O)(O)O)ccc2s1)C(=O)N1Cc2ccccc2CC1C(=O)N1CCC[C@H](c2ccccc2)C1 (stereo partly drawn) [Compound 190, ((2-(((2S)-3,3-dimethyl-1-oxo-1-(3-((R)-3-phenylpiperidine-1-carbonyl)-3,4-dihydroisoquinolin-2(1H)-yl)butan-2-yl)carbamoyl)benzo[b]thiophen-5-yl)difluoromethyl)phosphonic acid] | 1 to 10 | 0.1 to 1 |
| CC(C)(C)[C@H](NC(=O)c1cc2cc(C(F)(F)P(=O)(O)O)ccc2s1)C(=O)N1Cc2ccccc2CC1C(=O)N1CC[C@H](c2ccccc2)C1 (stereo partly drawn) [Compound 191, ((2-(((2S)-3,3-dimethyl-1-oxo-1-(3-((R)-3-phenylpyrrolidine-1-carbonyl)-3,4-dihydroisoquinolin-2(1H)-yl)butan-2-yl)carbamoyl)benzo[b]thiophen-5-yl)difluoromethyl)phosphonic acid] | > 10 | 1 to 10 |
| CC(C)(C)[C@H](NC(=O)c1cc2cc(C(F)(F)P(=O)(O)O)ccc2s1)C(=O)N1Cc2ccccc2CC1C(=O)N1CC[C@@H](c2ccccc2)C1 (stereo partly drawn) [Compound 192, ((2-(((2S)-3,3-dimethyl-1-oxo-1-(3-((S)-3-phenylpyrrolidine-1-carbonyl)-3,4-dihydroisoquinolin-2(1H)-yl)butan-2-yl)carbamoyl)benzo[b]thiophen-5-yl)difluoromethyl)phosphonic acid] | > 10 | > 10 |
| CC(C)(C)[C@H](NC(=O)c1cc2cc(C(F)(F)P(=O)(O)O)ccc2s1)C(=O)N1Cc2ccccc2CC1C(=O)N1Cc2ccccc2C1 (stereo partly drawn) [Compound 193, (difluoro(2-(((2S)-1-(3-(isoindoline-2-carbonyl)-3,4-dihydroisoquinolin-2(1H)-yl)-3,3-dimethyl-1-oxobutan-2-yl)carbamoyl)benzo[b]thiophen-5-yl)methyl)phosphonic acid] | > 10 | > 10 |
| CC(C)(C)[C@H](NC(=O)c1cc2cc(C(F)(F)P(=O)(O)O)ccc2s1)C(=O)N1Cc2ccccc2CC1C(=O)Nc1ncc(-c2ccccc2)s1 (stereo partly drawn) [Compound 194, ((2-(((2S)-3,3-dimethyl-1-oxo-1-(3-((5-phenylthiazol-2-yl)carbamoyl)-3,4-dihydroisoquinolin-2(1H)-yl)butan-2-yl)carbamoyl)benzo[b]thiophen-5-yl)difluoromethyl)phosphonic acid] | 0.1 to 1 | 1 to 10 |
| CC(C)(C)[C@H](NC(=O)c1cc2cc(C(F)(F)P(=O)(O)O)ccc2s1)C(=O)N1Cc2ccccc2[C@H]1C(=O)N1CCO[C@H](c2ccccc2)C1 [Compound 195, ((2-(((S)-3,3-dimethyl-1-oxo-1-((S)-1-((R)-2-phenylmorpholine-4-carbonyl)isoindolin-2-yl)butan-2-yl)carbamoyl)benzo[b]thiophen-5-yl)difluoromethyl)phosphonic acid] | 1 to 10 | < 0.1 |
| CC(C)(C)[C@H](NC(=O)c1cc2cc(C(F)(F)P(=O)(O)O)ccc2s1)C(=O)N1Cc2ccccc2[C@H]1C(=O)N1CCC[C@H](c2ccccc2)C1 [Compound 196, ((2-(((S)-3,3-dimethyl-1-oxo-1-((S)-1-((R)-3-phenylpiperidine-1-carbonyl)isoindolin-2-yl)butan-2-yl)carbamoyl)benzo[b]thiophen-5-yl)difluoromethyl)phosphonic acid] | 1 to 10 | < 0.1 |
| CC(C)(C)[C@H](NC(=O)c1cc2cc(C(F)(F)P(=O)(O)O)ccc2s1)C(=O)N1Cc2ccccc2[C@H]1C(=O)N1CC[C@H](c2ccccc2)C1 [Compound 197, ((2-(((S)-3,3-dimethyl-1-oxo-1-((S)-1-((R)-3-phenylpyrrolidine-1-carbonyl)isoindolin-2-yl)butan-2-yl)carbamoyl)benzo[b]thiophen-5-yl)difluoromethyl)phosphonic acid] | > 10 | 1 to 10 |
| CC(C)(C)[C@H](NC(=O)c1cc2cc(C(F)(F)P(=O)(O)O)ccc2s1)C(=O)N1Cc2ccccc2[C@H]1C(=O)N1CC[C@@H](c2ccccc2)C1 [Compound 198, ((2-(((S)-3,3-dimethyl-1-oxo-1-((S)-1-((S)-3-phenylpyrrolidine-1-carbonyl)isoindolin-2-yl)butan-2-yl)carbamoyl)benzo[b]thiophen-5-yl)difluoromethyl)phosphonic acid] | 1 to 10 | 0.1 to 1 |
| CC(C)(C)[C@H](NC(=O)c1cc2cc(C(F)(F)P(=O)(O)O)ccc2s1)C(=O)N1Cc2ccccc2[C@H]1C(=O)N1Cc2ccccc2C1 [Compound 199, (difluoro(2-(((S)-1-((S)-1-(isoindoline-2-carbonyl)isoindolin-2-yl)-3,3-dimethyl-1-oxobutan-2-yl)carbamoyl)benzo[b]thiophen-5-yl)methyl)phosphonic acid] | > 10 | 1 to 10 |
